Test results from patent publication US8008262B2, “β-peptides” (Yale University, priority 2004, dated 2011).
Read-outs that look alike come from different tables or passages of the source.

Columns and labels:
hDM21-188 (hDM2) [1] = biological target: T1, hDM21-188 (hDM2) (Homo sapiens, UniProt Q00987); experiment: Competition fluorescence polarization (cFP) assay, inhibition of p53AD^Flu·hDM2 complexation; type: binding
hDM21-188 (hDM2) [2] = biological target: T1, hDM21-188 (hDM2); experiment: Direct fluorescence polarization binding of fluorescein-labeled ligands to hDM2
IZN17 [3] = experiment: Competition fluorescence polarization, inhibition of C14wt^Flu·IZN17 complexation; design: species or system HIV; details: read-out: IC50, competition with C14wt^Flu for IZN17 binding
[4] = system: HeLa-CD4-LTR-β-gal cells and CHO-SEC cells; experiment: Cell-fusion assay (syncitia formation), gp41 mediated fusion; type: cell-based, HIV-1; details: read-out: EC50, inhibition of cell-cell-fusion
IZN17 [5] = experiment: Direct fluorescence polarization binding to gp41 model IZN17; design: species or system HIV; details: fluorescein-labeled ligand, direct FP; read-out: equilibrium affinity (Kd) for IZN17
calmodulin = calmodulin (Homo sapiens, UniProt P0DP23); details: read-out: Kd for calmodulin
carbonic anhydrase II = carbonic anhydrase II (Homo sapiens, UniProt P00918); details: read-out: Kd for carbonic anhydrase II
[6] = Circular dichroism: extent of 14-helix structure in aqueous buffer; type: physicochemical; details: initial CD comparison of β53-1D and β53-1
[7] = Analytical ultracentrifugation, oligomeric state; type: physicochemical
CREB KID·CBP KIX complex = CREB KID·CBP KIX complex (Homo sapiens, UniProt Q92793); experiment: Inhibition of formation of the unrelated CREB KID·CBP KIX complex; type: binding; details: specificity control
Sequence of CREB KID·CBP KIX complex (Q92793 587-666 limits assumed, one chain of several): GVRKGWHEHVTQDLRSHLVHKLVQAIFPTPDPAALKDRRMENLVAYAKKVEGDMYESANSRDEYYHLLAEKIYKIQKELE

[8] = read-out: IC50, inhibition of p53AD^Flu·hDM2 interaction
[9] = read-out: binding affinity (Kd) for hDM2
[10] = concentrations between 80 and 400 μM
[11] = competition FP, unlabeled ligand
[12] = fluorescein-labeled ligand, read-out: Kd, apparent equilibrium dissociation constant of complexes between fluorescein-labeled ligands and hDM2

T1 sequence (Q00987 1-188 limits assumed): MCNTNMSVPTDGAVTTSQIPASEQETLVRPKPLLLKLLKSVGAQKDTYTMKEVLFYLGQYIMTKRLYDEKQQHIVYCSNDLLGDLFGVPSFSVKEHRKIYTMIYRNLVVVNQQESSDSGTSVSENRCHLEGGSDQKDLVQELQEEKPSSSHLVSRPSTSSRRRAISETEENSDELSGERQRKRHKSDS

CC(C)[C@H](N)CC(=O)N[C@H](CC(=O)N[C@@H](CCC(=O)O)CC(=O)NCCC(=O)O)Cc1c[nH]c2ccccc12 [β53-7, reference compound]
IC50 (hDM21-188 (hDM2) [1]; competition FP): > 1000 µM

CC[C@H](C)[C@@H](CC(=O)N[C@H](CC(=O)N[C@@H](CCC(=O)O)CC(=O)N[C@H](CC(=O)N[C@H](CC(=O)N[C@@H](CCCN)CC(=O)N[C@H](CC(=O)N[C@H](CC(=O)N[C@@H](CCC(=O)O)CC(=O)O)Cc1ccccc1)[C@@H](C)CC)Cc1c[nH]c2ccccc12)[C@@H](C)CC)CC(C)C)NC(=O)C[C@@H](N)CCCN [Hit 1]
IC50 (hDM21-188 (hDM2) [1]; [8]): 13 ± 1 µM | Kd (hDM21-188 (hDM2) [2]; [9]): 0.055 ± 0.008 µM

CC[C@H](C)[C@@H](CC(=O)N[C@@H](CCC(=O)O)CC(=O)N[C@H](CC(=O)N[C@H](CC(=O)N[C@@H](CCCN)CC(=O)N[C@H](CC(=O)N[C@H](CC(=O)N[C@@H](CCC(=O)O)CC(=O)O)Cc1c[nH]c2ccccc12)C(C)C)Cc1c[nH]c2ccccc12)C(C)C)NC(=O)C[C@@H](NC(=O)C[C@@H](N)CCCN)C(C)C [βWWI-1]
IC50 (IZN17 [3]): 4 ± 0.7 µM | EC50 [4]: 27 ± 2.5 µM | Kd (IZN17 [5]): 0.75 ± 0.1 µM | Kd (calmodulin): ≥ 100 µM | Kd (carbonic anhydrase II): ≥ 115 µM

CC(C)C[C@@H](CC(=O)N[C@@H](CCC(=O)O)CC(=O)N[C@H](CC(=O)N[C@H](CC(=O)N[C@@H](CCCN)CC(=O)N[C@H](CC(=O)N[C@H](CC(=O)N[C@@H](CCC(=O)O)CC(=O)O)Cc1ccccc1)C(C)C)Cc1c[nH]c2ccccc12)C(C)C)NC(=O)C[C@@H](NC(=O)C[C@@H](N)CCCN)C(C)C [β53-1]
mean residue ellipticity [6]: −8450.4 deg·cm^2·dmol^−1 | oligomeric state ([7]; at concentrations exceeding 1 mM): monomeric | oligomeric state [7, 10]: monomeric | IC50 (hDM21-188 (hDM2) [1]; [11]): 94.5 ± 4.4 µM | inhibition of formation of CREB KID·CBP KIX complex (CREB KID·CBP KIX complex): failed to inhibit | Kd (hDM21-188 (hDM2) [2]; [12]): 0.37 ± 0.08 µM

CC(C)C[C@@H](CC(=O)N[C@@H](CCC(=O)O)CC(=O)N[C@H](CC(=O)N[C@H](CC(=O)N[C@@H](CCCN)CC(=O)N[C@H](CC(=O)N[C@H](CC(=O)N[C@@H](CCC(=O)O)CC(=O)O)Cc1ccccc1)C(C)C)Cc1c[nH]c2ccccc12)C(C)C)NC(=O)[C@H]1CCCC[C@@H]1NC(=O)C[C@@H](N)CCCN [β53-AC2]
oligomeric state [7]: no evidence of oligomerization | IC50 (hDM21-188 (hDM2) [1]; unlabeled ligand): 15.5 ± 1 µM | Kd (hDM21-188 (hDM2) [2]; [12]): 0.21 ± 0.04 µM

CC[C@H](C)[C@@H](CC(=O)N[C@H](CC(=O)N[C@@H](CCC(=O)O)CC(=O)N[C@H](CC(=O)N[C@H](CC(=O)N[C@@H](CCCN)CC(=O)N[C@H](CC(=O)N[C@H](CC(=O)N[C@@H](CCC(=O)O)CC(=O)O)C(C)C)Cc1c[nH]c2ccccc12)C(C)C)Cc1c[nH]c2ccccc12)C(C)C)NC(=O)C[C@@H](N)CCCN [βWWI-2]
IC50 (IZN17 [3]): 4.6 ± 0.4 µM | EC50 [4]: 15 ± 1.6 µM | Kd (IZN17 [5]): 1 ± 0.3 µM

CC(C)C[C@@H](CC(=O)N[C@@H](CCC(=O)O)CC(=O)N[C@H]1CCCC[C@@H]1C(=O)N[C@H](CC(=O)N[C@@H](CCCN)CC(=O)N[C@H]1CCCC[C@@H]1C(=O)N[C@H](CC(=O)N[C@@H](CCC(=O)O)CC(=O)O)Cc1ccccc1)Cc1c[nH]c2ccccc12)NC(=O)[C@H]1CCCC[C@@H]1NC(=O)C[C@@H](N)CCCN [β53-ACtrip]
oligomeric state [7]: discrete higher-order oligomers, likely hexamers or heptamers | IC50 (hDM21-188 (hDM2) [1]; unlabeled ligand): 17.2 ± 1.3 µM | Kd (hDM21-188 (hDM2) [2]; [12]): 0.17 ± 0.05 µM

N[C@H](CC(=O)O)Cc1c[nH]c2ccccc12 [β^3W, β^3-homotyptophan, reference compound]
IC50 (hDM21-188 (hDM2) [1]; competition FP): > 1000 µM

CC(C)C[C@@H](CC(=O)N[C@@H](CCC(=O)O)CC(=O)N[C@H](CC(=O)N[C@H](CC(=O)N[C@@H](CCCN)CC(=O)N[C@H]1CCCC[C@@H]1C(=O)N[C@H](CC(=O)N[C@@H](CCC(=O)O)CC(=O)O)Cc1ccccc1)Cc1c[nH]c2ccccc12)C(C)C)NC(=O)C[C@@H](NC(=O)C[C@@H](N)CCCN)C(C)C [β53-AC8]
oligomeric state [7]: could indicate a monomer-dimer equilibrium at low millimolar concentrations | IC50 (hDM21-188 (hDM2) [1]; unlabeled ligand): 10.5 ± 0.8 µM | Kd (hDM21-188 (hDM2) [2]; [12]): 0.22 ± 0.06 µM

CC(C)C[C@@H](CC(=O)N[C@@H](CCC(=O)O)CC(=O)N[C@H]1CCCC[C@@H]1C(=O)N[C@H](CC(=O)N[C@@H](CCCN)CC(=O)N[C@H](CC(=O)N[C@H](CC(=O)N[C@@H](CCC(=O)O)CC(=O)O)Cc1ccccc1)C(C)C)Cc1c[nH]c2ccccc12)NC(=O)C[C@@H](NC(=O)C[C@@H](N)CCCN)C(C)C [β53-AC5]
oligomeric state [7]: discrete higher-order oligomers, likely hexamers or heptamers | IC50 (hDM21-188 (hDM2) [1]; unlabeled ligand): 60.3 ± 3.8 µM | Kd (hDM21-188 (hDM2) [2]; [12]): 0.21 ± 0.04 µM

CC(C)[C@H](N)CC(=O)N[C@H](CC(=O)N[C@@H](CCCN)CC(=O)N[C@H](CC(=O)N[C@H](CC(=O)N[C@@H](CCC(=O)O)CC(=O)O)Cc1ccccc1)C(C)C)Cc1c[nH]c2ccccc12 [β53-6]
IC50 fold better than β53-1 and β53-5 (hDM21-188 (hDM2) [1]): over 2 fold | IC50 (hDM21-188 (hDM2) [1]; [11]): 36.2 ± 2.6 µM

CC[C@H](C)[C@@H](CC(=O)N[C@H](CC(=O)N[C@@H](CCC(=O)O)CC(=O)N[C@H](CC(=O)N[C@H](CC(=O)N[C@@H](CCCN)CC(=O)N[C@H](CC(=O)N[C@H](CC(=O)N[C@@H](CCC(=O)O)CC(=O)O)Cc1ccccc1)C(C)C)Cc1c[nH]c2ccccc12)[C@@H](C)CC)CC(C)C)NC(=O)C[C@@H](N)CCCN [Hit 2]
IC50 (hDM21-188 (hDM2) [1]; [8]): 11 ± 1 µM | Kd (hDM21-188 (hDM2) [2]; [9]): 0.089 ± 0.02 µM

CC[C@H](C)[C@@H](CC(=O)N[C@H](CC(=O)N[C@@H](CCC(=O)O)CC(=O)O)C(C)C)NC(=O)C[C@H](CCCN)NC(=O)C[C@@H](NC(=O)C[C@H](Cc1c[nH]c2ccccc12)NC(=O)C[C@H](CCC(=O)O)NC(=O)C[C@@H](NC(=O)C[C@H](Cc1c[nH]c2ccccc12)NC(=O)C[C@@H](N)CCCN)C(C)C)C(C)C [βWWI-3]
IC50 (IZN17 [3]): 13 ± 4.1 µM | EC50 [4]: 13 ± 1.9 µM | Kd (IZN17 [5]): 2.4 ± 0.7 µM

CC(C)C[C@@H](CC(=O)N[C@@H](CCC(=O)O)CC(=O)N[C@H](CC(=O)N[C@@H](C)CC(=O)N[C@@H](CCCN)CC(=O)N[C@H](CC(=O)N[C@@H](C)CC(=O)N[C@@H](CCC(=O)O)CC(=O)O)C(C)C)C(C)C)NC(=O)C[C@@H](NC(=O)C[C@@H](N)CCCN)C(C)C [β53-L3]
IC50 (hDM21-188 (hDM2) [1]; [11]): > 7000 µM

CC(C)[C@@H](CC(=O)N[C@H](CC(=O)N[C@@H](CCCN)CC(=O)N[C@H](CC(=O)N[C@@H](C)CC(=O)N[C@@H](CCC(=O)O)CC(=O)O)C(C)C)Cc1c[nH]c2ccccc12)NC(=O)C[C@H](CCC(=O)O)NC(=O)C[C@H](C)NC(=O)C[C@@H](NC(=O)C[C@@H](N)CCCN)C(C)C [β53-W6]
IC50 value fold higher than that of β53-1 (hDM21-188 (hDM2) [1]): 2 fold | IC50 (hDM21-188 (hDM2) [1]; [11]): 198 ± 10 µM

CC[C@H](C)[C@@H](CC(=O)N[C@@H](CCC(=O)O)CC(=O)O)NC(=O)C[C@@H](NC(=O)C[C@H](CCCN)NC(=O)C[C@H](Cc1c[nH]c2ccccc12)NC(=O)C[C@@H](NC(=O)C[C@H](CCC(=O)O)NC(=O)C[C@H](Cc1c[nH]c2ccccc12)NC(=O)C[C@@H](NC(=O)C[C@@H](N)CCCN)C(C)C)C(C)C)C(C)C [βWWI-4]
IC50 (IZN17 [3]): 3.3 ± 1.4 µM | EC50 [4]: 5.3 ± 0.5 µM | Kd (IZN17 [5]): 1.5 ± 0.4 µM

CC(C)C[C@@H](CC(=O)N[C@H](CC(=O)N[C@@H](CCC(=O)O)CC(=O)N[C@H](CC(=O)N[C@H](CC(=O)N[C@@H](CCCN)CC(=O)N[C@H](CC(=O)N[C@H](CC(=O)N[C@@H](CCC(=O)O)CC(=O)O)C(C)C)Cc1ccccc1)C(C)C)Cc1c[nH]c2ccccc12)C(C)C)NC(=O)C[C@@H](N)CCCN [β53-3]
oligomeric state [7, 10]: monomeric | IC50 (hDM21-188 (hDM2) [1]): 1590 ± 104 µM

CC(C)C[C@H](N)CC(=O)N[C@@H](CCC(=O)O)CC(=O)N[C@H](CC(=O)N[C@H](CC(=O)N[C@@H](CCCN)CC(=O)N[C@H](CC(=O)N[C@H](CC(=O)N[C@@H](CCC(=O)O)CC(=O)O)Cc1ccccc1)C(C)C)Cc1c[nH]c2ccccc12)C(C)C [β53-5]
IC50 (hDM21-188 (hDM2) [1]; [11]): 80.8 ± 3.2 µM

CC(C)[C@@H](CC(=O)N[C@H](CC(=O)N[C@@H](CCC(=O)O)CC(=O)O)Cc1ccccc1)NC(=O)C[C@H](CCCN)NC(=O)C[C@H](C)NC(=O)C[C@@H](NC(=O)C[C@H](CCC(=O)O)NC(=O)C[C@H](C)NC(=O)C[C@@H](NC(=O)C[C@@H](N)CCCN)C(C)C)C(C)C [β53-F9]
IC50 (hDM21-188 (hDM2) [1]; [11]): 1700 ± 163 µM
